Measurements published in ChEMBL document CHEMBL4000244, “Probing A-form DNA: A fluorescent aminosugar probe and dual recognition by anthraquinone-neomycin conjugates” (Bioorg Med Chem, 2017).
Activity calls are given as the source filed them. No cut-off for these calls is given here.

Columns and labels:
[1] = Binding affinity to 5'-CGCCCCCC-3' DNA hairpin assessed as change in fluorescence intensity at 1 uM after 45 mins by fluorescence quenching analysis relative to control
[2] = Binding affinity to 5'-CGGGCCCC-3' DNA hairpin assessed as change in fluorescence intensity at 1 uM after 45 mins by fluorescence quenching analysis relative to control
[3] = Binding affinity to 5'-CCGGCGCG-3' DNA hairpin assessed as change in fluorescence intensity at 1 uM after 45 mins by fluorescence quenching analysis relative to control
[4] = Binding affinity to 5'-CCCCCGGC-3' DNA hairpin assessed as change in fluorescence intensity at 1 uM after 45 mins by fluorescence quenching analysis relative to control
[5] = Binding affinity to 5'-GCCCCGCC-3' DNA hairpin assessed as change in fluorescence intensity at 1 uM after 45 mins by fluorescence quenching analysis relative to control
[6] = Binding affinity to 5'-GGGGCGCC-3' DNA hairpin assessed as change in fluorescence intensity at 1 uM after 45 mins by fluorescence quenching analysis relative to control
[7] = Binding affinity to 5'-CGCGCCGG-3' DNA hairpin assessed as change in fluorescence intensity at 1 uM after 45 mins by fluorescence quenching analysis relative to control
[8] = Binding affinity to 5'-GGGGCCGG-3' DNA hairpin assessed as change in fluorescence intensity at 1 uM after 45 mins by fluorescence quenching analysis relative to control
[9] = Binding affinity to 5'-GCGGCGCC-3' DNA hairpin assessed as change in fluorescence intensity at 1 uM after 45 mins by fluorescence quenching analysis relative to control
[10] = Binding affinity to 5'-CCGGCGCC-3' DNA hairpin assessed as change in fluorescence intensity at 1 uM after 45 mins by fluorescence quenching analysis relative to control
[11] = Binding affinity to 5'-CCCCGGGC-3' DNA hairpin assessed as change in fluorescence intensity at 1 uM after 45 mins by fluorescence quenching analysis relative to control
[12] = Binding affinity to 5'-GGCGCGGG-3' DNA hairpin assessed as change in fluorescence intensity at 1 uM after 45 mins by fluorescence quenching analysis relative to control
[13] = Binding affinity to d(G4C4)2 DNA major groove assessed as stabilization of A-from DNA conformation by measuring induction of sharper band at 265 nanometer at drug:DNA molar ratio of 1:1 after 30 mins by CD spectroscopic method
[14] = Binding affinity to 5'-GCCCGCGG-3' DNA hairpin assessed as change in fluorescence intensity at 1 uM after 45 mins by fluorescence quenching analysis relative to control
[15] = Binding affinity to 5'-GGCGCGGC-3' DNA hairpin assessed as change in fluorescence intensity at 1 uM after 45 mins by fluorescence quenching analysis relative to control
[16] = Binding affinity to 5'-GGGGCCCG-3' DNA hairpin assessed as change in fluorescence intensity at 1 uM after 45 mins by fluorescence quenching analysis relative to control
[17] = Binding affinity to 5'-CGCGGCGC-3' DNA hairpin assessed as change in fluorescence intensity at 1 uM after 45 mins by fluorescence quenching analysis relative to control
[18] = Binding affinity to 5'-GCCGCGGC-3' DNA hairpin assessed as change in fluorescence intensity at 1 uM after 45 mins by fluorescence quenching analysis relative to control
[19] = Binding affinity to 5'-CCGCGCGC-3' DNA hairpin assessed as change in fluorescence intensity at 1 uM after 45 mins by fluorescence quenching analysis relative to control
[20] = Binding affinity to 5'-CCGGGCCC-3' DNA hairpin assessed as change in fluorescence intensity at 1 uM after 45 mins by fluorescence quenching analysis relative to control
[21] = Binding affinity to 5'-GGGGCCGC-3' DNA hairpin assessed as change in fluorescence intensity at 1 uM after 45 mins by fluorescence quenching analysis relative to control
[22] = Binding affinity to 5'-CCGGGCCG-3' DNA hairpin assessed as change in fluorescence intensity at 1 uM after 45 mins by fluorescence quenching analysis relative to control
[23] = Binding affinity to 5'-GCGCGCGC-3' DNA hairpin assessed as change in fluorescence intensity at 1 uM after 45 mins by fluorescence quenching analysis relative to control
[24] = Binding affinity to 5'-GCGGGGCG-3' DNA hairpin assessed as change in fluorescence intensity at 1 uM after 45 mins by fluorescence quenching analysis relative to control
[25] = Binding affinity to 5'-GCCCCCCC-3' DNA hairpin assessed as change in fluorescence intensity at 1 uM after 45 mins by fluorescence quenching analysis relative to control
[26] = Binding affinity to 5'-CCGGGGCC-3' DNA hairpin assessed as change in fluorescence intensity at 1 uM after 45 mins by fluorescence quenching analysis relative to control
[27] = Binding affinity to 5'-CGGCGCGC-3' DNA hairpin assessed as change in fluorescence intensity at 1 uM after 45 mins by fluorescence quenching analysis relative to control
[28] = Binding affinity to 5'-GCGGCCGG-3' DNA hairpin assessed as change in fluorescence intensity at 1 uM after 45 mins by fluorescence quenching analysis relative to control
[29] = Binding affinity to 5'-CGGCGCCC-3' DNA hairpin assessed as change in fluorescence intensity at 1 uM after 45 mins by fluorescence quenching analysis relative to control
[30] = Binding affinity to 5'-CCGCCCCC-3' DNA hairpin assessed as change in fluorescence intensity at 1 uM after 45 mins by fluorescence quenching analysis relative to control
[31] = Binding affinity to 5'-GCGGGCGG-3' DNA hairpin assessed as change in fluorescence intensity at 1 uM after 45 mins by fluorescence quenching analysis relative to control
[32] = Binding affinity to 5'-GCCGCGCC-3' DNA hairpin assessed as change in fluorescence intensity at 1 uM after 45 mins by fluorescence quenching analysis relative to control
[33] = Binding affinity to 5'-GCGGGGGG-3' DNA hairpin assessed as change in fluorescence intensity at 1 uM after 45 mins by fluorescence quenching analysis relative to control
[34] = Binding affinity to 5'-CCCGGCGC-3' DNA hairpin assessed as change in fluorescence intensity at 1 uM after 45 mins by fluorescence quenching analysis relative to control
[35] = Binding affinity to 5'-GGGCCCCC-3' DNA hairpin assessed as change in fluorescence intensity at 1 uM after 45 mins by fluorescence quenching analysis relative to control
[36] = Binding affinity to 5'-GGCCCCCG-3' DNA hairpin assessed as change in fluorescence intensity at 1 uM after 45 mins by fluorescence quenching analysis relative to control

`NCC1O[C@H](O[C@H]2[C@@H](O)[C@H](O[C@@H]3[C@@H](O)[C@H](N)C[C@H](N)[C@H]3O[C@H]3O[C@H](CN)[C@@H](O)[C@H](O)[C@H]3N)O[C@@H]2CSCCNC(=O)CCSCC(=O)Nc2ccc(-c3c4ccc(=O)cc-4oc4cc(O)ccc34)c(C(=O)O)c2)[C@H](N)[C@@H](O)[C@@H]1O` (stereo partly specified) showed an Activity [1] of 25.1%, an Activity [2] of 35.1% and an Activity [3] of 45.4%. It also gave an Activity [4] of 33.7%, an Activity [5] of 40.2% and an Activity [6] of 51.4%. It also gave an Activity [7] of 43.8%, an Activity [8] of 28.3% and an Activity [9] of 49.9%. The Activity [10] was 48.9%, the Activity [11] was 43% and the Activity [12] was 46.2%. For the same compound, the Activity [13] was “Active”, the Activity [14] was 50.3% and the Activity [15] was 49.4%. It also gave an Activity [16] of 29.7%, an Activity [17] of 52.5% and an Activity [18] of 56.3%. For the same compound, the Activity [19] was 57.5%, the Activity [20] was 38.9% and the Activity [21] was 41.3%. It also gave an Activity [22] of 40.2%, an Activity [23] of 45.2% and an Activity [24] of 45.2%. It also gave an Activity [25] of 10.1%, an Activity [26] of 37.6% and an Activity [27] of 46.2%. For the same compound, the Activity [28] was 40.9%, the Activity [29] was 45.2% and the Activity [30] was 41.4%. For the same compound, the Activity [31] was 45%, the Activity [32] was 48.8% and the Activity [33] was 38.1%. The Activity [34] was 44.8%, the Activity [35] was 15% and the Activity [36] was 16%.
